Reference: patent publication US9295679B2, “Prodrugs of C-17-heteroaryl steroidal CYP17 inhibitors/antiandrogens: synthesis, in vitro biological activities, pharmacokinetics and antitumor activity” (University of Maryland, Baltimore, priority 2008, dated 2016)

Assays:
[1] = Oral bioavailability in rat; settings: in vivo
[2] = system: PC-3 cells; assay: Real-time PCR (qRT-PCR) of stress response and cell cycle genes in PC-3 cells; assay type: cell-based; settings: 20 μM, 24 hr
Protocol: Cells were treated, lysed and RNA collected and quantified using the same method outlined above. Cells were dosed independently on three separate days (n=3). 1 μg of total RNA was converted to cDNA using ReactionReady™ First Strand cDNA Synthesis kit (SuperArray Bioscience Corp.; Frederick, Md.) following the manufacturer's protocol. 50 ng of template cDNA was then used in subsequent real-time PCR (qRT-PCR) reactions. Template was combined with target gene specific or β-actin control RT^2 PCR Primer Sets, RT^2 Real-Time™ SYBR Green/Rox Master Mix (SuperArray Bioscience Corp.), and ddH2O for a final reaction volume of 25 μL and run on a 7900HT Fast Real-Time PCR system (Applied Biosystems; Foster City, Calif.) following the manufacturer's protocol. Fold changes were calculated using the ΔΔCt method as recommended by the manufacture's protocol.

[3] = mice, s.c. 50 mg/kg; cited from earlier work
[4] = system: PC-3 cells; assay: Absolute [Ca2+]i in PC-3 cells (Fura-2AM); assay type: cell-based; settings: for average [Ca2+]i: 2 hours, Fura-2AM, control 36.49 nM
Protocol: (§1) PC-3 Cells were loaded with either fura-2 or fluo-3 indicator by incubation with 2 μM fura-2/AM or 2 μM fluo-3/AM in RPMI 1640 medium containing 10% fetal bovine serum for >60 min at room temperature. During experiments, the coverslips were mounted in a flow chamber and superfused with oxygenated Locke solution containing (in mM): 10 glucose, 136 NaCl, 5.6 KCl, 1.2 NaH2PO4, 14.3 NaHCO3, 1.2 MgCl2, and 2.2 CaCl2, pH 7.4, at room temperature (22-24° C.).
(§2) Cells loaded with fura-2 were placed in a perfusion chamber mounted on an inverted microscope (TE200; Nikon, Tokyo, Japan) equipped with a UV-transmitting objective (SuperFluor, 40×, N.A. 1.4, Nikon). Fura-2 was alternately excited by 340 nm and 380 nm light from monochrometers (Deltascan Illumination System, Photonic Technology International (PTI), South Brunswick, N.J.) and fura-2 emission was passed through a 515 nm longpass filter before detection by a cooled CCD camera (Retiga 2000R, Q-Imaging, Burnaby, Canada). For measurement of Ca^2+ transients in individual cells, coverslips with fluo-3 loaded cells were excited by the output of a 100 W mercury arc lamp that passed through a 480 nm bandpass filter (30 nm bandwidth). Fluorescence emission was passed through a 515 nm longpass filter before capture by a cooled CCD camera (Retiga 2000R, Q-Imaging). Image acquisition was performed with QCapture Pro (Q-Imaging) and analysis was performed with ImageJ (U.S. National Institutes of Health, Bethesda, Md., USA).
Fluo-3 Ca^2+ indicator measurements are reported as the fractional change in fluorescence intensity relative to baseline (ΔF/F0), which was determined as follows. Within a temporal sequence of fluorescence images, a region of interest (ROI) was drawn around each cell to be analyzed. The fluorescence signal from each cell was calculated as the pixel-averaged intensity within each ROI. In these experiments, a slight downward drift in baseline was typically observed, which was principally attributable to photo-bleaching of the indicator. In such cases, the drift was always well fit by a low-amplitude single-exponential decay. The fitted baseline value (F0) at every time point was then used to calculate ΔF/F0. ΔF/F0 values are reported as mean±SE. For fura-2 measurements, [Ca^2+]i was derived using the ratio method of Grynkiewicz et al.^46

[5] = system: PC-3 cells; assay: Ca2+ transients in PC-3 cells (Fluo-3AM); assay type: cell-based; settings: 20 μM; for transient rise in [Ca2+]i, mean ΔF/Fo: Fluo-3AM
Protocol: as §1, §2
Fluo-3 Ca^2+ indicator measurements are reported as the fractional change in fluorescence intensity relative to baseline (ΔF/F0), which was determined as follows. Within a temporal sequence of fluorescence images, a region of interest (ROI) was drawn around each cell to be analyzed. The fluorescence signal from each cell was calculated as the pixel-averaged intensity within each ROI. In these experiments, a slight downward drift in baseline was typically observed, which was principally attributable to photo-bleaching of the indicator. […]

SMILES: C[C@]12CC[C@H](O)CC1=CC[C@@H]1[C@@H]2CC[C@]2(C)C(n3cnc4ccccc43)=CC[C@@H]12 [Compound 5, 3β-hydroxy-17-(1H-benzimidazole-1-yl)androsta-5,16-diene]
- bioavailability [1]: ~10%
- CHOP gene expression [2]: strongly up-regulated
- activating transcription factor 4 (ATF4) gene expression [2]: up-regulated
- asparagines synthetase (ASNS) gene expression [2]: up-regulated
- cyclin D1 mRNA levels [2]: not affected
- cyclin E2 mRNA [2]: significantly reduced
- detectability in plasma at 8 hours [3]: neither was detectable
- peak plasma levels [3]: 16.82 ng/mL
- effect on [Ca2+]i ([4]; 1 μM Compound 5, 2 hours): did not have a significant effect
- average [Ca2+]i ([4]; 5 μM): 79.13 nM
- average [Ca2+]i ([4]; 10 μM): 96.63 nM
- average [Ca2+]i ([4]; 20 μM): 79.89 nM
- transient rise in [Ca2+]i, mean ΔF/Fo ([5]; extracellular calcium present): 0.613
- transient rise in [Ca2+]i, mean ΔF/Fo ([5]; extracellular calcium removed): 0.967
- Ca2+ transient after depletion of ER calcium stores ([5]; pretreatment with SERCA inhibitor CPA): completely abolished
